# Assay results as given in article PMC3062964, “Biomolecular Interaction Study of Cyclolinopeptide A with Human Serum Albumin” (Journal of Biomedicine and Biotechnology, 2011).
# Peptide text beside a SMILES is read from it.
# Assays:
# [1] = biological target: T1, Human Serum Albumin (HSA, fatty acid free) (Homo sapiens, UniProt P02768); experiment: SPR binding of CLP-A to immobilized HSA; conditions: for Kd: Kd = 1/Ka, SPR; for Kd / Ka: 1X PBS pH 7.4, 5% DMSO; for Ka: SPR (BiacoreX, CM5 chip, HSA 9–11 kRU), CLP-A 50–200 μM injected in triplicate, dose-response fitted with rectangular hyperbola, global Rmax 2000, standard error of curve-fitting in brackets
# T1 construct: purchased Sigma (Oakville, ON)
# Experimental: Running buffer for all experiments was prepared by diluting a 10X phosphate-buffered saline (PBS) stock solution (100 mM phosphate buffer, 20.7 mM KCl, 1370 mM NaCl, pH 6.7) to a 1X PBS, pH 7.4 solution containing 5% DMSO. Running buffers were filtered and degassed daily before use.
# Analyte solutions containing the CLP-A peptides were prepared by diluting the stock solution (10 mM in DMSO) into 1.05X PBS, giving a final 1X PBS, pH 7.4 buffer containing 5% DMSO (same as the running buffer).
# All SPR measurements were performed at different temperatures using a BiacoreX instrument equipped with a research-grade CM5 carboxylated-dextran sensor chip (Biacore). The fluidic unit of the instrument was cleaned prior to experiments using the DESORB method (injections of 0.5% sodium dodecyl sulphate, followed by 50 mM glycine, pH 9.5) equipped in the instrument's software. On some occasions a “SUPER-CLEAN” method was also used (injections of 1% CH3COOH, 1 M NaHCO3, 10 mM HCl, and 6 M GndHCl).
# The carboxylated-dextran sensor chips were preconditioned prior to HSA immobilization by priming the instrument 3 times with HBS-EP buffer, followed by 3 successive 1 min injections of 50 mM NaOH at 50 μL min^−1. HSA was covalently immobilized onto a CM5 sensor surface at 25°C using standard amine-coupling chemistry. Flow cell 1 (Fc1) and flow cell 2 (Fc2) were activated by a 7 min injection of a 1 : 1 mixture of 0.1 M NHS and 0.4 M EDC using a flow rate of 5 μL min^−1. Immediately after activation, HSA (30 μg mL^−1, 10 mM acetate buffer pH 5.3) was immobilized onto Fc2. A 7 min injection of 1 M EA (pH 8.5) was conducted over Fc1 and Fc2 to deactivate the surfaces. The final HSA concentration immobilized onto the chip was 9–11 kRU.
# CLP-A solutions (50–200 μM) were injected in triplicate and flowed over reference and HSA surfaces for 2 min at a flow rate of […], followed by a dissociation phase of 3 min for all experimental temperatures. At the end of the CLP-A injection, the flowing solution was switched to the running buffer until the response returned to the original baseline. Instances where the baseline was not readily achieved, a short pulse of 50% (v/v) DMSO solution was injected at high flow rate to remove any remaining CLP-A. Data were collected at a rate of 5 Hz and processed using the BiaEvaluation V4.2 software. The equilibrium constant, Ka, was determined using the rectangular hyperbola equation [20]:
# (1) Req=Rmax Ka[CLP-A]/1+Ka[CLP-A], where Req, Rmax, [CLP-A] are the measured response values, the binding site saturation value, and the concentration of CLP-A, respectively. Curve-fitting was done with Microcal Origin V7.1 using a global Rmax value of 2000.
# CLP-A concentration was limited to below 200 μM due to the solubility of the peptide in the buffer. The affinity of interaction was estimated by first assuming that HSA-binding sites were equally available and second that only high affinity sites were occupied in the working concentration range [24]. The Kd and Ka values indicate that affinity increases as the temperature increased. […] To further elucidate the HSA/CLP-A interaction, thermodynamic parameters are extracted using the van't Hoff equation (2) ln Kd=ΔH/R(1/T)−ΔS/R, where R = 8.314 J mol^−1 K^−1. This yields ΔH and ΔS for the interaction to be 204 kJ mol^−1 and 746 J mol^−1 K^−1 respectively. The binding is overall endothermic. This indicates an association with the hydrophobic pockets of HSA and the opening of binding sites. Moreover, DMSO has been used to assist the solubility. Therefore, the entire solvation complex consisting of CLP-A, DMSO and H2O requires energy to expose the binding site. This energy plus the binding energy for interaction in the hydrophobic pockets of HSA result in an overall endothermic process. The large entropy of the endothermic process clearly indicate that binding is entropy-driven. This is due to contribution from breaking of the solvation complex and hydrophobic binding.
# HSA = biological target: T2, HSA (Homo sapiens, UniProt P02768); experiment: Far-UV circular dichroism, secondary structure of HSA upon CLP-A binding; conditions: HSA 18 μM + CLP-A 50 μM, 10 mM PBS, 5% DMSO, pH 7.4, room temperature, far-UV CD, CDNN V2.1, 210–260 nm
# T2 construct: purchased Sigma (Oakville, ON)
# Experimental: CD measurements of HSA (18 μM), HSA/CLP-A (18 μM, 50 μM) in 10 mM PBS, 5% DMSO, pH = 7.4 buffer were made with a Pistar-180 CD spectrometer (Applied Photophysics Ltd., Leatherhead, UK) at room temperature. The far-UV region was scanned from 260–180 nm in 0.5 nm steps at a scan rate of 10 nm min^−1 and a bandwidth of 6 nm using a 0.010 cm optical pathlength quartz cuvette. The secondary structure was estimated using the neural network deconvolution software CDNN V2.1 [22]. The near-UV region was scanned from 350–250 nm in 0.5 nm steps at a scan rate of 10 nm min^−1, and a bandwidth of 2 nm using a 10 mm optical pathlength cuvette.
# In order to assess if any conformational changes were present upon CLP-A complexation with HSA, we compared the far-UV and near-UV CD spectra of HSA and HSA/CLP-A in the running buffer used in the Biacore experiments shown in Figure 5. CD spectra taken in the far-UV spectral region provide insight to the secondary structure of a protein. […] This region of the spectra corresponds to signals from the phenylalanine, tyrosine, and tryptophan residues on the protein and it provides insight to changes in the tertiary structure of the protein.
# T2 sequence (P02768 25-609): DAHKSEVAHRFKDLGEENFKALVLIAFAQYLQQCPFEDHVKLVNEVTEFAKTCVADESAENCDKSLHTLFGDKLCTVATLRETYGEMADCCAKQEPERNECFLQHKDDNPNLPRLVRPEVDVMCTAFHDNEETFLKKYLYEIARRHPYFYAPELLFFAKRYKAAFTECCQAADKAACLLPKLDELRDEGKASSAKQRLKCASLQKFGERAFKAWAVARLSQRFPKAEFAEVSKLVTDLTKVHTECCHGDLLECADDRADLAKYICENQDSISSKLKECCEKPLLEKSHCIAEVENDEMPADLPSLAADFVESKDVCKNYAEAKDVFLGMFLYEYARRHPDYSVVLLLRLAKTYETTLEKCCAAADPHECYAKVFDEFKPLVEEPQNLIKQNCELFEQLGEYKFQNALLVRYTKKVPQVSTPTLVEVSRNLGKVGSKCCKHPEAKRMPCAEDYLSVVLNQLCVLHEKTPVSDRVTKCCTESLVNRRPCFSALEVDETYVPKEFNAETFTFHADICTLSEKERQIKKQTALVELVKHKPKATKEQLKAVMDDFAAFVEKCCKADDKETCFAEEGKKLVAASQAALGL
# T1 sequence (P02768 25-609): as above
smiles,measurement,setting,value
"CC[C@H](C)[C@@H]1NC(=O)[C@H](CC(C)C)NC(=O)[C@H](Cc2ccccc2)NC(=O)[C@H](Cc2ccccc2)NC(=O)[C@@H]2CCCN2C(=O)[C@@H]2CCCN2C(=O)[C@H](C(C)C)NC(=O)[C@H](CC(C)C)NC(=O)[C@H]([C@@H](C)CC)NC1=O [CLP-A, Cyclolinopeptide A] (cyclo(FFLIILVPP))",Kd,[1]; 20°C,1320 µM
same,Ka,[1]; 20°C,757 (33) M^−1
same,Kd,[1]; 25°C,593 µM
same,Ka,[1]; 25°C,1687 (20) M^−1
same,Kd,[1]; 30°C,142 µM
same,Ka,[1]; 30°C,7056 (36) M^−1
same,Kd,[1]; 37°C,20 µM
same,Ka,[1]; 37°C,50032 (1792) M^−1
same,recognition kinetics of binding to the HSA-binding site,"[1]; SPR sensorgrams, 50–200 μM, 20–37°C, gradual increase of response to steady state during injection",very slow recognition kinetics
same,Secondary structure of HSA/CLP-A: Parallel,HSA; HSA alone 6,6%
same,Secondary structure of HSA/CLP-A: Antiparallel,HSA; HSA alone 8,9%
same,Secondary structure of HSA/CLP-A: Beta-Turn,HSA; HSA alone 15,16%
same,Secondary structure of HSA/CLP-A: Rndm. Coil,HSA; HSA alone 27,29%
same,Secondary structure of HSA/CLP-A: Helix,HSA; HSA alone 46,41%
